Structures can show the parent of a compound that is named as a salt.
Legend:
[1] = target: T1, SOAT (Homo sapiens, UniProt Q3KNW5); test: Substrate screening: sodium-dependent uptake of radiolabeled compounds in SOAT-HEK293 cells; type: cell-based; settings: SOAT-HEK293, vs sodium-free control
T1 construct: The full-length open reading frames of NTCP, ASBT, and SOAT were cloned; expressed in transfected cells; host or cells: Flp-In T-REX HEK293 (SOAT-HEK293), tetracycline-induced
T1 sequence (Q3KNW5 1-377): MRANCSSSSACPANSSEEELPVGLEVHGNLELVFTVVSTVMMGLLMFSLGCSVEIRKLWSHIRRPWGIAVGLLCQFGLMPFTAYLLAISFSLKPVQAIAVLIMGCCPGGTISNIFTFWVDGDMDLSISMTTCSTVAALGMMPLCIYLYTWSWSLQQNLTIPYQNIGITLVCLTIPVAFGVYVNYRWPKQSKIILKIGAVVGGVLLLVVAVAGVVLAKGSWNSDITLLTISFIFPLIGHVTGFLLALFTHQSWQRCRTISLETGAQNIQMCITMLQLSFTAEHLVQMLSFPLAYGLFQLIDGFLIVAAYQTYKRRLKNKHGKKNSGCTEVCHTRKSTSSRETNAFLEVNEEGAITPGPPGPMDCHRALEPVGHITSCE
Description: (§1) Stably SLC10 transporter transfected NTCP-HEK293, ASBT-HEK293, SOAT-HEK293 cells and the HEK293-FlpIn maternal cell line were seeded on 24-well plates (if not stated otherwise for individual assays). Well plates were coated with poly-D-lysine prior to seeding of 125,000 cells per well. Cells were grown with 1 ml of standard medium per well with or without tetracycline ([…]) for 72 h to induce carrier expression before respective assays were started. HEK293-FlpIn cells were cultivated with standard medium and served as control.
(§2) Uptake experiments were initiated by replacing the preincubation buffer by 500 μL transport buffer containing the radiolabeled test compound and were performed at 37°C. Transport was terminated by removing the transport buffer and washing five-times with ice-cold PBS. Cell monolayers were lysed in 1 N NaOH with 0.1% SDS and the cell-associated radioactivity was determined by liquid scintillation counting.
(§3) FIGURE 1 Comparative substrate screening for bile acids and sulfated steroids in NTCP-, ASBT-, and SOAT-HEK293 cells. Transport assays were performed with the indicated substrates in NTCP-HEK293, ABST-HEK293, SOAT-HEK293, and HEK293-FlpIn cells. Cells were washed and equilibrated with Na^+-containing transport buffer (filled bars) or with Na^+-free transport buffer (open bars) at 37°C. For uptake, cells were incubated with radiolabeled steroid compounds at a final concentration of 200 nM in Na^+-containing or Na^+-free transport buffer for 10 min. Radiolabeled bile acids were used at 1 µM concentrations and transport was analyzed over 30 min. HEK293-FlpIn cells served as additional controls. After the indicated time intervals, cells were washed with ice-cold PBS, lysed and subjected to liquid scintillation counting. […] 3-OH, trihydroxylated BAs; 2-OH, dihydroxylated BAs; 1-OH, monohydroxylated BAs.

[2] = target: T2, NTCP (Homo sapiens, UniProt Q14973); test: Binding of fluorescent myr-preS1-Al633 peptide to NTCP-HEK293 cells; design: The full-length open reading frames of NTCP, ASBT, and SOAT were cloned; expressed in transfected cells; host or cells: Flp-In T-REX HEK293 (NTCP-HEK293), tetracycline-induced
T2 sequence (Q14973 1-349): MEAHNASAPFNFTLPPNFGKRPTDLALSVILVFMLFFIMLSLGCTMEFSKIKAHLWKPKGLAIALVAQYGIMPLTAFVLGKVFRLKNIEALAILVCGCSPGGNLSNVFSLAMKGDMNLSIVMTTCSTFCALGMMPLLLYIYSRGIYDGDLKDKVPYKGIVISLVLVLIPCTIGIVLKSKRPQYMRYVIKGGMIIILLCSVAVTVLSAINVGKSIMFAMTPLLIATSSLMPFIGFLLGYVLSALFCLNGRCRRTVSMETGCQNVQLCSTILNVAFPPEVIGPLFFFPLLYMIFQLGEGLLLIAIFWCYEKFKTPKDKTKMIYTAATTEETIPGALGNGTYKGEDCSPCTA
Description: NTCP-HEK293 cells were seeded into 24-well-dishes as described above. For every set of induced wells an equal number of not-induced wells were used as respective background controls. Cells were washed three times with PBS and then preincubated with sodium transport buffer supplemented with MEM-amino acid solution (ThermoFisher) at 1:50 dilution at 37°C for 5 min. The fluorescent myr-preS1-Al633 peptide was added with a final concentration of 10 nM and binding experiments were performed over 10 min at 37°C. […] For calculation of the NTCP-specific binding signal, the mean background signal from the not-induced cells was subtracted. Net binding rates in the absence of any inhibitor were set to 100%.
(B) Binding of the fluorescent myr-preS1-Al633 peptide was analyzed in NTCP-HEK293 cells in the presence of increasing concentrations of TC, DHEAS, or TLC. […] Fluorescence was quantified by a fluorescence reader and values are expressed as percentage of control.

[3] = target: T2, NTCP; test: Transport inhibition in NTCP-HEK293 cells; settings: substrate inhibitors, 1 min after 5 min preincubation
[4] = target: T3, ASBT (Homo sapiens, UniProt Q12908); test: Substrate screening: sodium-dependent uptake of radiolabeled compounds in ASBT-HEK293 cells; type: cell-based; settings: radiolabeled bile acids 1 µM, 30 min, ASBT-HEK293, vs sodium-free control
T3 construct: The full-length open reading frames of NTCP, ASBT, and SOAT were cloned; expressed in transfected cells; host or cells: Flp-In T-REX HEK293 (ASBT-HEK293), tetracycline-induced
T3 sequence (Q12908 1-348): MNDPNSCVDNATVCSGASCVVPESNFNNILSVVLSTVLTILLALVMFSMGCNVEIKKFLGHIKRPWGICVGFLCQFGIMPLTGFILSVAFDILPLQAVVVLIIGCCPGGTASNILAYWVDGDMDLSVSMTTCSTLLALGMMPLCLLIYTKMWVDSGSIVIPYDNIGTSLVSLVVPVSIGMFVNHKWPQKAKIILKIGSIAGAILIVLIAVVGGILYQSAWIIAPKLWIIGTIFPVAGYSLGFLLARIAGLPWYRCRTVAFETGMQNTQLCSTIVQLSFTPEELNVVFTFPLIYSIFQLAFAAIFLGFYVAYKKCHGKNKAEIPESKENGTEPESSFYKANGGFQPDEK
Description: as §1, §2, §3

[5] = NTCP IC50, substrate [3H]DHEAS, 200 nM [3H]DHEAS
[6] = NTCP IC50, substrate [3H]TC, 200 nM [3H]TC
[7] = NTCP IC50, substrate [3H]TLC, 200 nM [3H]TLC

| SMILES | Transport activity grading SOAT (mean uptake) ([1]; radiolabeled steroid compounds 200 nM, 10 min) | IC50 [2] [µM] | IC50 [3, 5] [µM] | IC50 [3, 6] [µM] | IC50 [3, 7] [µM] | Transport activity grading ASBT (mean uptake) [4] | Transport activity grading SOAT (mean uptake) ([1]; radiolabeled bile acids 1 µM, 30 min) | IC50 ([2]; 10 nM myr-preS1-Al633, 10 min, 37°C, NTCP-HEK293, read-out: IC50 for inhibition of myr-preS1 peptide binding to NTCP) [µM] |
| --- | --- | --- | --- | --- | --- | --- | --- | --- |
| C[C@]12CC[C@H](OS(=O)(=O)O)CC1=CC[C@@H]1[C@@H]2CC[C@]2(C)C(=O)CC[C@@H]12 [DHEAS, Dehydroepiandrosterone sulfate] | ++ (“++” for values between 10 and 100) | 52 | 3.4 | 21.5 | 432 |  |  |  |
| C[C@H](CCC(=O)NCCS(=O)(=O)O)[C@H]1CC[C@H]2[C@@H]3[C@H](O)C[C@@H]4C[C@H](O)CC[C@]4(C)[C@H]3C[C@H](O)[C@]12C [Taurocholic acid] |  |  |  |  |  | ++ (“++” for values between 500 and 1000) |  |  |
| C[C@H](CCC(=O)NCCS(=O)(=O)O)[C@H]1CC[C@H]2[C@@H]3CC[C@@H]4C[C@H](O)CC[C@]4(C)[C@H]3CC[C@]12C [Taurolithocholic acid] |  |  | 1.8 | 1.7 | 1.4 | +++ (“+++” for values above 1000 pmol/mg protein/30 min) | ++ (“++” for values between 500 and 1000) | 4.3 |
